Patent US9540299B2, “MTOR-independent activator of TFEB for autophagy enhancement and uses thereof” (Hong Kong Baptist University, priority 2015, dated 2017)

What was measured:
[1] = molecular target: T1, MTOR-TFEB-YWHA interaction (Homo sapiens, UniProt P19484); assay: Co-immunoprecipitation of MTOR and YWHA with Flag-TFEB in Hela cells; format: cell-based; conditions: Hela 3×Flag-TFEB cells, 1 μM, 12 h
T1 construct: expressed in transfected cells; host or cells: HeLa cells stably expressing 3×Flag-TFEB; MTOR and YWHA are endogenous
T1 sequence (P19484 1-476): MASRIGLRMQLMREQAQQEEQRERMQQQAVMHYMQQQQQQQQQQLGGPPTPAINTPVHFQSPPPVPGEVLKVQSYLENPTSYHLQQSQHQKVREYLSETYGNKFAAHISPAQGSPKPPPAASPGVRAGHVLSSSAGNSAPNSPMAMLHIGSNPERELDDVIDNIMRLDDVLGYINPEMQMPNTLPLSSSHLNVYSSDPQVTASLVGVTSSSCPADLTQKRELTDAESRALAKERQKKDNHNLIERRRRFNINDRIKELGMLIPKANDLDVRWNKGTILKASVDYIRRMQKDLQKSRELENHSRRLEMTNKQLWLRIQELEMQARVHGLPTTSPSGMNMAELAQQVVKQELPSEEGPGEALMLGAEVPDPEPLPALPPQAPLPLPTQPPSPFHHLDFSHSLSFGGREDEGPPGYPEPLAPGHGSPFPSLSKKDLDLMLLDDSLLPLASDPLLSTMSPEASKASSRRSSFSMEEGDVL
Description: Hela cells stably expressing 3×Flag-TFEB are treated with C1 (1 μM) for 12 h. Endogenous MTOR and YWHA are co-immunoprecipitated with Flag-TFEB. Western blots and levels of immunoprecipitated MTOR (FIG. 5A) and YWHA (FIG. 5B) normalized to their corresponding levels in whole cell lysates (WCL). Data are presented as the mean±SD from three independent experiments. *p<0.05 vs. the control. WB—western blot and IP—immunoprecipitation. Cells are lysed on ice in 1× Lysis Buffer (9803, Life Technologies) with complete protease inhibitor mixture (04693124001, Roche Applied Science). Animal tissues are homogenized in nine volumes of ice-cold PBS supplemented with protease inhibitors. Cytosolic and nuclear fractions are isolated using protocols similar to those described previously. Anti-Flag or TFEB antibody is added to the whole cell lysates and Dynabeads® Protein G (10003D, Life Technologies) is used for immunoprecipitation. Proteins are separated by 10-15% SDS-PAGE, transferred, and blotted with the antibodies described. The blots are then incubated with secondary antibodies or the Clean-Blot IP Detection Reagent (21230, Thermo Scientific) at room temperature for 1 h. The protein signals are detected by ECL kit (32106, Pierce) and quantified using ImageJ software. Hela cells stably expressing 3×Flag-TFEB are treated with C1 (1 μM) for 12 h. […]

[2] = tested on: TFEB and autophagy in rats brains; assay: Short-term oral administration in SD rats: TFEB, autophagy and MTOR markers in liver and brain; format: in vivo
Description: SD rats (n=6 per group) are orally administered by gavage with C1 (10 mg/kg and 25 mg/kg per day) or vehicle (1% CMC-Na) for 24 h. An additional dosage of C1 was given for 6 h before the rats were killed. […] FIG. 9B-9D are bar charts showing quantitative data of various protein expressions in the liver, frontal cortex and striatum. Data are presented as the mean±SD (n=6). *p<0.05 vs. the vehicle treatment. […] Relative quantification (RQ) is presented as means±SD (n=4). *p<0.05 vs. the vehicle treatment.
SD rats (n=6 per group) are orally administered by gavage with C1 (10 mg/kg and 25 mg/kg per day) or vehicle (1% CMC-Na) for 24 h. An additional dosage of C1 is given for 6 h before the rats are killed. […] Data are presented as the mean±SD (n=6). FIG. 10B is western blot (left) and quantitative data (right) showing TFEB nuclear translocation after C1 treatment (n=4).
All animal care and procedures are approved by the Hong Kong Baptist University Committee on the Use of Human and Animal Subjects in Teaching and Research. Adult male Sprague-Dawley (SD) rats weighted 350-400 g are maintained on ad libitum food and water with a 12-hour light/dark cycle in a controlled environment. For short-term treatment, rats (n=6 per group) are orally administered by gavage with C1 (10 mg/kg and 25 mg/kg per day) or vehicle (1% sodium carbonyl methylcellulose (CMC-Na)) for 24 h. For chronic treatment, C1 (10 mg/kg per day) is given by gavage to rats for 21 days. At the end of each treatment, an additional dosage of C1 is given for 6 h before the rats are killed. Livers and major brain regions dissected are snap-frozen in liquid nitrogen.
Total RNA is extracted from cells and tissues using RNeasy Plus Mini Kit (74134, Qiagen). Reverse transcription is performed using High-Capacity cDNA Reverse Transcription Kit (4368814, Life Technologies). Autophagy and lysosome gene primers are synthesized by Life Technologies and the oligonucleotide sequences are listed in Table 1. Real-time PCR is carried out with the Fast SYBRR Green Master Mix (4385612, Life Technologies) using the ViiA™ 7 Real-Time PCR System (Life Technologies). Fold changes are calculated using the ΔΔCT method and the results were normalized against an internal control (GAPDH or ACTB).
Cells are lysed on ice in 1× Lysis Buffer (9803, Life Technologies) with complete protease inhibitor mixture (04693124001, Roche Applied Science). Animal tissues are homogenized in nine volumes of ice-cold PBS supplemented with protease inhibitors. Cytosolic and nuclear fractions are isolated using protocols similar to those described previously. Anti-Flag or TFEB antibody is added to the whole cell lysates and Dynabeads® Protein G (10003D, Life Technologies) is used for immunoprecipitation. Proteins are separated by 10-15% SDS-PAGE, transferred, and blotted with the antibodies described. The blots are then incubated with secondary antibodies or the Clean-Blot IP Detection Reagent (21230, Thermo Scientific) at room temperature for 1 h. The protein signals are detected by ECL kit (32106, Pierce) and quantified using ImageJ software.

[3] = short-term oral 10 and 25 mg/kg

**Q.** For `COc1ccccc1/C=C/C(=O)/C=C/c1ccccc1OC` [C1, 1,5-bis(2-methoxyphenyl)penta-1,4-dien-3-one], which “MTOR and YWHA coimmunoprecipitated with Flag-TFEB compared with control” value [1] is on record?
**A.** decreased

**Q.** What about the “levels of endogenous MTOR and YWHA” value [1] of the same compound?
**A.** does not affect

**Q.** And the “interaction between endogenous TFEB and MTOR in the frontal cortex” value ([2]; oral 25 mg/kg)?
**A.** significantly inhibited

**Q.** And the “phosphorylation of MTOR and RPS6KB1 in frontal cortex” value ([2]; oral 25 mg/kg)?
**A.** significantly increases

**Q.** And the “expression of LC3-II and TFEB in the liver, frontal cortex and striatum” value ([2]; short-term oral 10 mg/kg and 25 mg/kg)?
**A.** dose-dependently increases

**Q.** What about the “expression of LAMP1 in the brains” value [2, 3] of the same compound?
**A.** dose-dependently increases

**Q.** What about the “nuclear translocation of TFEB in the brains (western blot)” value [2, 3] of the same compound?
**A.** dose-dependently promotes

**Q.** And the “levels of endogenous SQSTM1/p62 or SNCA in the brains” value ([2]; short-term oral administration)?
**A.** does not affect

**Q.** What about the “mRNA of TFEB and several autophagy/lysosomal genes in the brain (real-time PCR)” value ([2]; short-term oral, frontal cortex) of the same compound?
**A.** up-regulated
